Assay [1] relates to melanoma B16F10 cells. The experiment in a line: IncuCyte S3 live-cell proliferation (confluence), B16F10. The assay is classed as cell-based. On the procedure: (§1) FIG. 1: Hematological tumors are more sensitive to GSK126 than solid tumors. (A) Proliferation of B16F10, Huh7 and SMMC7721 cells in GSK126 (10-20 μM) treatment group was monitored by Incucyte S3, with 6 replicates per group; (B) viability of Daudi and THP-1 cells after GSK126 (200 nM-24 μM) treatment for 24 h and 48 h was measured by CCK-8 assay, with 5 replicates per group; (C) western blot analysis (WB) of B16F10 cells 48 h after the treatment without or with GSK126 (6 μM, 12 μM), with H3 used as an internal reference for histone. 5 to 6 replicates were established for each group, with *P<0.05, **P<0.01, and ***P<0.001, and ns for no statistical difference.
(§2) In order to accurately assess the responsiveness of solid tumor cells to EZH2 inhibitors, the effects of GSK126 at different concentrations on the proliferation of melanoma B16F10 cells and hepatoma Huh7 and SMMC-7721 cells were initially detected by IncuCyte S3×Live-Cell Analysis System.
(§3) • (1) Cells in the logarithmic growth phase were digested with 0.25% trypsin and the digestion was terminated by the addition of serum-containing medium. It was then centrifuged at 200 g for 5 min; • (2) The single cell suspension at the corresponding concentration was prepared by a microscopic counting method, and then added into a 96-well culture plate, so that the volume of the culture medium in each well was 150 μL (about 5000 cells). […]

A further assay has as its system hepatoma Huh7 cells. Nature of the assay: IncuCyte S3 live-cell proliferation (confluence), Huh7. The assay is classed as cell-based. On the procedure: as §1, §2, §3
The test system of a further assay is hepatoma SMMC-7721 cells. Nature of the assay: IncuCyte S3 live-cell proliferation (confluence), SMMC-7721. The assay is classed as cell-based. The method, then:
as §1, §2, §3

Assay [2] deals with Burkitt lymphoma cells (Daudi). The experiment in a line: CCK-8 cell proliferation/viability assay, Daudi. The assay is classed as cell-based. The following applies: for cell viability inhibited by GSK126, on fatty acid supplementation: with GSK126, CCK-8. On the procedure:
as §1
(§4) FIG. 5: Effect of GSK126 on the metabolic profile of Daudi cells. (A) Orthogonal partial least squares discriminant analysis (OPLS-DA) score plot based on metabolic analysis (6 replicates per group). C: control, G: GSK126 treatment. (B) Score plot for validating the OPLS-DA model (R2Y=0.973; Q2Y=0.931). (C) The number of metabolites of each category in metabolomics. […] (E) Viability of Daudi cells after palmitic acid treatment was analyzed by CCK-8 kit (3 replicates per group). 3-6 replicates per group, *P<0.05, **P<0.01.
(§5) FIG. 6: The combination with an SCD1 inhibitor enhances the inhibitory effect of GSK126 on cancer cells. (A) Differential metabolites between DMSO and GSK126-treated Daudi cells. […] Metabolite categories are shown in different colors. […] (C) The mRNA levels of lipid metabolism genes in GSK126-treated Daudi cells were detected by RT-qPCR (3 replicates per group). (D) Viability of GSK126 and palmitinic acid-treated Daudi cells was analyzed by CCK-8 assay kit (5 replicates per group). (E) Viability of GSK126 and stearic acid-treated Daudi cells was analyzed by CCK-8 assay kit (5 replicates per group). (F) Proliferation curves of B16F10 and SMMC7721 cells treated with GSK126 and MF-438 were monitored by IncuCyte S3 (5 replicates per group). (G) CCK-8 assay kit detects the viability of B16F10 and SMMC7721 cells treated with GSK126 and MF-438. CI is calculated by CompuSyn software. CI<0.9 indicates synergism and CI>1.1 indicates antagonism. (H) Schematic diagram of mouse tumor-bearing experiment. (I-J) Tumor weight (I) and tumor growth curve (J) of the mice loaded with B16F10 cells. The tumor volume was measured with a vernier caliper every 2 days. Tumor volume=(length*width*width)/2. (K) Representative tumor pictures of all experimental groups. 3-8 replicates per group, *P<0.05, **P<0.01, ***P<0.001.

In assay [3] the test system is hematological tumor cells THP-1. The experiment in a line: CCK-8 cell proliferation/viability assay, THP-1. The assay is classed as cell-based. Conditions: 10 μM, 24 h and 48 h. On the procedure:
as §1

Assay [4] has as its system H3K27me3 level in B16F10 cells. The experiment in a line: Western blot of H3K27me3 in B16F10 cells. The following applies: 6 μM, 48 h, WB. The assay is classed as cell-based. On the procedure: as §1
On the technique in general: A western blot detects proteins with antibodies after separation by electrophoresis.

Another assay has as its system melanoma cells B16F10. Nature of the assay: Cell scratch (migration) assay, B16F10. The assay is classed as cell-based. Conditions: B16F10, 10 μM, 36 h of culture, vs control group. The method, then:
(§6) FIG. 2: Melanoma cells B16F10 are less sensitive to GSK126. (A) Cell scratch assay, showing the effect of GSK126 (10 μM) treatment on the migration capability of B16F10 cells, with 3 replicates per group; (B-C) the effect of GSK126 (10, 13, and 15 μM) on the apoptosis rate of B16F10 cells, as examined by flow cytometry […] and Annexin V staining assay. 3 replicates were established for each group, with *P<0.05, **P<0.01, and ***P<0.001, and ns for no statistical difference.
(§7) Next, to further validate the effect of GSK126 at 10 μM on melanoma cells B16F10, scratch assay was conducted. […] In addition, to assess the anti-survival effect of GSK126, B16F10 cells were treated by GSK126 at different concentrations for different durations, and the apoptosis rate of the cells was analyzed by flow cytometry (section B of FIG. 2) and live-cell fluorescence imaging (section C of FIG. 2).

A further assay deals with B16F10 cells. The experiment in a line: Apoptosis by flow cytometry and Annexin V live-cell imaging, B16F10. The assay is classed as cell-based. The following applies: B16F10, 10 μM. On the procedure: as §6, §7
(In general: Flow cytometry measures light scatter and fluorescence of single cells or particles in a stream.)

Assay [5] relates to melanoma B16F10 cells. Nature of the assay: Metabolite (fatty acid) levels in GSK126-treated B16F10 cells. The assay is classed as cell-based. Conditions: GSK126 group. The text has this:
FIG. 3: GSK126 results in significant elevated levels of 6 fatty acids in melanoma B16F10 cells.
Among the metabolites with significant changes, the levels of many fatty acids increased in the GSK126 group. There are five polyunsaturated fatty acids, including α-linolenic acid, DHA, EPA, linoleic acid, and γ-linolenic acid) and one monounsaturated fatty acid, i.e., 10Z-heptadienoic acid (FIG. 3).

The subject of assay [6] is ACLY, FASN, and SCD in SMMC7721. Nature of the assay: RT-qPCR and WB of fatty acid synthesis genes, SMMC7721. The assay is classed as cell-based. The text has this: (§8) FIG. 4: Lipid accumulation in mice after GSK126 treatment. (A) H & E and oil red O staining of the liver tissue sections of the tumor-bearing mice in the control group and the GSK126 treatment group, in which the statistical results of negative or positive staining area were shown on the right (3 replicates per group); (B) TG level in the serum of the tumor-bearing mice in the control group and the GSK126 treatment group (5 replicates per group); (C-D) mRNA (C) and protein (D) levels of the genes related to fatty acid anabolism in the GSK126-treated HCC cells, as detected by RT-qPCR and WB (3 replicates per group). 3 to 5 replicates were established for each group, with *P<0.05, **P<0.01.
(§9) C57BL/6 mice of 6-8 weeks old were subcutaneously implanted with B16F10 cells and treated with GSK126 again. […] Therefore, the expression of the fatty acid synthesis-related genes in GSK126-treated hepatocellular carcinoma (HCC) cell lines SMMC7721 and Huh7 was further detected.
A general note: Real-time PCR tracks product formation cycle by cycle.

Assay [7] has as its system ACLY, FASN, and SCD in Huh7. The experiment in a line: RT-qPCR and WB of fatty acid synthesis genes, Huh7. The assay is classed as cell-based.
Excerpt: as §8, §9

A further assay has as its system Daudi cells. Nature of the assay: UPLC-MS/MS metabolomics of Daudi cells. The assay is classed as cell-based. Conditions: GSK126 6 μM vs control. On the procedure:
as §4, §5
In order to verify that the lipid metabolism of cancer cells is the key factor affecting the sensitivity of the EZH2 inhibitor, UPLC-MS/MS system was used to analyze the metabolomics of the Daudi cells treated with GSK126 at a concentration of 6 μM (close to the IC50 value). The differences in the metabolome between the cells in the control group and the GSK126 treatment group were obvious by OPLS-DA analysis (sections A and B of FIG. 5). There were 71 metabolites with significant changes and VIP values greater than 1.0.

Assay [8] concerns ELOVL2, SCD1, and FASN in Daudi cells. Nature of the assay: RT-qPCR of lipid metabolism genes in Daudi cells. The assay is classed as cell-based. Conditions: mRNA. The method, then:
as §5, with “***P<0.001. […]” for “***P<0.001.”

For assay [9], the system named is hematologic cancer cell lines. Conditions: most hematologic cancer cell lines; many studies; read-out: IC50 (half-maximal inhibitory concentration); cited from earlier work.
Where [10] appears, read: GSK126 at different concentrations (10-20 μM).

Entries after “also recorded” stand apart in the source; their conditions may differ.

Data on three compounds can be found in patent US20240325385A1, “ANTI-TUMOR PHARMACEUTICAL COMPOSITION COMPRISING EZH2 INHIBITOR AND SCD1 INHIBITOR AND USE THEREOF” (PEKING UNIVERSITY THIRD HOSPITAL, priority 2021, published 2024).

For the compound `CC[C@H](C)n1cc(C)c2c(C(=O)NCc3c(C)cc(C)[nH]c3=O)cc(-c3ccc(N4CCNCC4)nc3)cc21` [GSK126], the cell proliferation result with melanoma B16F10 cells [1] (GSK126 10 μM) is reported as “less effective; also recorded: could not be effectively inhibited”; in the assay on melanoma B16F10 cells [1] (setting [10]), “inhibited cell proliferation in a dose-dependent manner”; in the assay with hepatoma Huh7 cells (GSK126 10 μM), “less effective”; in the assay with hepatoma Huh7 cells (setting [10]) it was “inhibited cell proliferation in a dose-dependent manner”; with hepatoma SMMC-7721 cells (GSK126 10 μM), “less effective”; in the assay with hepatoma SMMC-7721 cells (setting [10]), “inhibited cell proliferation in a dose-dependent manner”. In addition, the “sensitivity of Daudi cells” value in assay [2] (1 μM, CCK-8) is on record as “very sensitive”. For the same compound, the “proliferation of Daudi cells” value in assay [2] (10 μM, 24 h and 48 h, CCK-8) is recorded as “significantly inhibited”. Besides, the IC50 in assay [2] (Daudi cells) is ~6 µM; in assay [9], < 1 µM. In addition, the “proliferation of THP-1 cells” value in assay [3] is reported as “significantly inhibited”. In addition, the H3K27me3 level entry in [4] was “significantly down-regulated”. For the same compound, the cell migration entry in the assay on melanoma cells B16F10 was “did not effectively inhibit cell migration”. For the same compound, the induction of apoptosis result in the assay on B16F10 cells was “limited capability to induce apoptosis”. Also, in the assay with melanoma B16F10 cells [5], the “levels of fatty acids (five polyunsaturated, one monounsaturated)” value is given as “increased”. The “mRNA and protein levels of ACLY, FASN, and SCD” value in assay [6] and in assay [7] was “significantly elevated” each time. In the assay with Daudi cells, the down-regulated metabolites was 6. Also, in the assay with Daudi cells, the “fatty acids (incl. ricinoleic acid, DPA n-6)” value is given as “four fatty acids decreased”. Also, the “metabolites with significant changes and VIP values greater than 1.0” value in the assay with Daudi cells came to 71. The up-regulated metabolites in the assay with Daudi cells is given as 65. Besides, in assay [8], the “expression of ELOVL2, SCD1, and FASN” value is reported as “did not upregulate”.
Take `CCCCCCCCCCCCCCCC(=O)O` [palmitic acid]: in assay [2] (Daudi cells, CCK-8), the “cell proliferation (viability) on fatty acid addition” value is “moderately promoted”. For the same compound, in [2] (Daudi cells), the “cell viability inhibited by GSK126, on fatty acid supplementation” value was “recovered the cell viability inhibited by GSK126 to varying degrees”.
`CCCCCCCCCCCCCCCCCC(=O)O` [stearic acid]: the “cell proliferation (viability) on fatty acid addition” value in assay [2] (Daudi cells, CCK-8) is “moderately promoted”. Further, the “cell viability inhibited by GSK126, on fatty acid supplementation” value in assay [2] (Daudi cells) is “recovered the cell viability inhibited by GSK126 to varying degrees”.
